According to US8367659B2, “Oxazinyl isoflavonoid compounds, medicaments and use” (Marshall Edwards, Inc., priority 2007, dated 2013):
Read-outs that look alike come from different tables or passages of the source.

How the values were obtained:
[1] = system: TNFα synthesis in RAW 264.7 murine macrophages; assay: LPS-induced TNFα synthesis in RAW 264.7 murine macrophages; type: cell-based, mouse; settings: 10 μM; relative to vehicle alone; FIG. 5
Description: (§1) The mouse macrophage cell line RAW 264.7 was cultured in DMEM supplemented with foetal calf serum (FCS), […] glutamine and 50 U/ml penicillin/streptomycin. Cells were treated with either test compound (in 0.025% DMSO) or vehicle alone, and added one hour before 50 ng/ml LPS. After incubation for 24 h, culture media was collected for PGE2 or TXB2 measurement by ELISA (Cayman Chemical), and TNFα measurement using an ELISA (Becton Dickinson). Test compounds were examined a concentration of 10 μM. […] Consequently, to assess the effect of test compounds on various analytes, cell viability was taken into consideration with the use of the formula: Actual effect of test compound=measured effect−(effect on cell viability×measured effect)

[2] = system: NO synthesis in RAW 264.7 murine macrophages; assay: LPS-induced NO synthesis in RAW 264.7 murine macrophages (Griess); type: cell-based, mouse; settings: 10 μM; relative to vehicle alone; FIG. 6
Description: as §1, with “Dickinson). Nitrite concentration is a quantitative indicator of NO production and was determined by the Griess Reaction. Briefly, 100 μL of Griess reagent was added to 50 μL of each supernatant in duplicate. The absorbance at 550 nm was measured (Molecular Devices, SpectraMax 250 microplate spectrophotometer, CA, USA), and nitrite concentrations were determined against a standard curve of sodium nitrite. The percentage nitrite inhibition was calculated as: [100−(nitrite concentration of sample/nitrite of vehicle control LPS cells)×100]. Results” for “Dickinson).”

[3] = Free radical scavenging with DPPH; settings: for EC50: DPPH, read-out: Free radical scavenging ability EC50
Description: The antioxidant (free radical trapping) activity of test compounds was assessed using the stable free radical compound 2,2-diphenyl-1-picrylhydrazyl (DPPH). A stock solution of DPPH was prepared at a concentration of […] in ethanol and mixed for 10 minutes prior to use. Test compounds at a concentration of 100 μM were reacted with DPPH for, 20 minutes, alter which time the absorbance at 517 nm was determined. Initial screening of was done at 100 μM. The change in absorbance at 517 nm was compared to a reagent blank (DPPH with ethanol alone). […] The IC50 values were estimated as the concentration of test compound that caused a 0.6 change in absorbance (with 1.2 absorbance units representing total scavenging of the DPPH radical).
The antioxidant (free radical trapping) activity of test compounds was assessed using the stable free radical compound 2,2-diphenyl-1-picrylhydrazyl (DPPH). A stock solution of DPPH was prepared […] in ethanol and mixed for 10 minutes prior to use. Initial screening of test compound at a concentration of 100 μM was reacted with DPPH for 20 minutes, after which time the absorbance at 517 nm was determined. The change in absorbance was compared to a reagent blank (DPPH with ethanol alone). […] The IC50 value was estimated as the concentration of test compound that causes a 0.6 change in absorbance (with 1.2 absorbance units representing total scavenging of the DPPH radical).

[4] = molecular target: T1, GAL4-PPARγ fusion protein (Homo sapiens, UniProt P37231); assay: PPARγ activity in transfected HEK293 cells (beta-lactamase reporter); type: cell-based; settings: FIG. 13: 1 μM
T1 construct: host or cells: HEK293 (human embryonic kidney), stably transfected
Description: Human HEK293 cells, stably transfected with the PPARγ ligand binding domain fused with the DNA binding domain of the GAL4 protein (GAL4-PPARγ fusion protein), produce beta-lactamase when incubated with PPARγ ligands. Transfected human kidney embryonic cells (Invitrogen Inc., Carlsbad, Calif.) were seeded onto matrigel in 96-well plates and allowed to attach overnight. The following day, vehicle alone (DMSO) or test compound at 1, 5 and 10 μM was added at varying concentrations to cells and incubated for 16-18 hours. Cells were then loaded with a FRET-based fluorescent substrate to assess beta-lactamase activity. Cells were protected from light, and incubated at room temperature for 2 h. Plates were read on a fluorescence plate reader with an excitation wavelength of 409 nm and emission wavelengths of 460 nm and 530 nm. Results were expressed as a ratio of these two wavelengths after the background (cell-free control wells) had been subtracted. PPARγ activity was thus determined by measuring beta-lactamase activity as assessed by a fluorescent product to substrate ratio.

CP70 = assay: Anti-cancer activity, CP70 ovarian cancer cells (MTT); type: cell-based; settings: 120 h, 5 days
HPAC = assay: Anti-cancer activity, HPAC pancreatic cancer cells (MTT); type: cell-based; settings: Homo sapiens, 120 h, 5 days
MM200 = assay: Anti-cancer activity, MM200 melanoma cells (MTT); type: cell-based; settings: 120 h; 5 days, MTT
cancer cell lines = assay: Anti-cancer activity, cancer cell lines tested as a group (MTT); type: cell-based; settings: CP70, HPAC and MM200
[5] = system: NFκB-promoter activity in TNFa-stimulated THP-1 monocyte/macrophages; assay: NFκB promoter activity in TNFα-stimulated THP-1 cells (beta-lactamase reporter); type: cell-based, human; settings: 30 μM; FIG. 19
Description: The assay utilizes a genetically modified THP-1 cell line and GeneBLAzer® beta-lactamase technology (Invitrogen Corp). The human THP-1 monocyte/macrophages contain a stably-transfected beta-lactamase reporter gene under control of the NFκB response element They respond to stimulation with TNF-a, which leads to activation of the NFκB signaling pathway. Co-incubation of cells with TNF-a and test material allows quantitative determination of the ability of test material to inhibit TNFa-stimulated beta-lactamase production. Inflammatory index is calculated as the ratio of beta-lactamase product to beta-lactamase substrate. In brief, genetically modified THP-1 cells were seeded into wells of a 96-well plate (50×10^3 cells/well) in the presence of RPMI 1640 medium (70 μl). TNFα was added to each well (10 μl) to give a final concentration of 7.5 ng/ml. Dialyzed bovine serum was added (10 μl). Compounds dissolved in DMSO (10 μL) were then added (5 wells for each compound). Each plate contained a no-cell control (4 wells), a no-serum control (4 wells) and two serum controls. Plates were incubated for 5 h at 37° C. to allow for NFκB-stimulated beta-lactamase production. LiveBLAzer™ FRET B/G Substrate (CCF4-AM) substrate was then added to assay. CCF4-AM is a Forster resonance energy transfer (FRET) based substrate for beta-lactamase developed by Invitrogen Corp. Once CCFA-AM enters a cell, it is converted to negatively charged CCF4 by endogenous esterases. Excitation of this substrate at 409 nm leads to efficient FRET between the coumarin and fluorescein moieties, resulting in a green fluorescence detectable at 530 nm. The presence of beta-lactamase leads to cleavage of CCF4 and results in a loss of FRET, resulting in a robust blue fluorescent signal detectable at 460 nm. Thus, activity of beta-lactamase (a marker of NFκB-promoter activity) is measured as a product to substrate ratio (blue/green fluorescence ratio: 460 nm/530 nm). The determination of inflammatory index has a within-plate CV of 2.1% and a between-plate CV of 8.9% This comparative study was conducted according to the assay method set out in the example at Section 2.4 above.

red blood cells (RBC) = assay: Peroxyl radical (AAPH)-induced red blood cell lysis; type: cell-based
Description: Freshly collected heparinised venous blood (10 ml, on ice) was aliquotted into 1.8 ml sterile Eppendorf tubes and centrifuged for 10 minutes at 2600 rpm at 4° C. Plasma and buffy coat layers were removed (approximately […]) and packed red blood cells (RBC) were then washed by the addition of […], ice cold PBS. This washing procedure was repeated twice. Packed RBC were resuspended by the addition of 900 ml of ice-cold, sterile PBS (and termed RBC stock). RBC stocks were stored at 4° C. for a maximum of three days. All working suspensions of RBC were prepared fresh daily by diluting […] of RBC stock into 10 ml of ice-cold, sterile PBS and […] added to each well.
Stocks of AAPH were freshly prepared for individual experiments as follows. AAPH (1.22 gm) was dissolved in 7.5 ml of PBS to yield a 4× stock at 600 mM and […] aliquots (final concentration of 150 mM) were then added to each well to initiate the lysis assay. Stock solutions of test compounds (40 mM in 100% DMSO) were diluted in sterile PBS to yield final concentrations of […] per well. Appropriate controls were included in each experiment. All compound dilutions were adjusted to give final DMSO concentrations in each well of 0.25%. Peroxy-induced RBC lysis assays were performed in 96-flat bottom well microtitre plates with a total volume of […] per well. Turbidity of RBC suspensions were monitored using a Tecan microplate reader at 690 nm (37° C.) with gentle vortexing. Assays were performed in quadruplicate and readings were taken every 5 minutes over 5 hours. RBC lysis curves were constructed by plotting absorbance (mean of 4 readings) against time. Time to half-lysis was calculated by taking the highest absorbance reading (no lysis) and the lowest absorbance reading (maximum lysis). The sum of these two readings divided by two gave the absorbance at half-lysis. Simple regression analysis was used to calculate the time at which half-lysis absorbance occurred.
This comparative study was conducted according to the assay method set out in the example at Section 3.3 above.

[6] = 20 minutes, absorbance 517 nm, Table 4

T1 sequence (P37231 238-503 limits assumed): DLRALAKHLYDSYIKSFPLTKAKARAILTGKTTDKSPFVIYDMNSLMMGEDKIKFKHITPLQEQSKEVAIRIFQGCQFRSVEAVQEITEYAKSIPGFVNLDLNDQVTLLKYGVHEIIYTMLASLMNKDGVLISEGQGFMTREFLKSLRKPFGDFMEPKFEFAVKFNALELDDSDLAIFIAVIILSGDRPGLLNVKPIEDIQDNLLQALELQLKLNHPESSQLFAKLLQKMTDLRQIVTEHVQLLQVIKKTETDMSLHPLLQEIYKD
T1 sequence (P04386 1-147 partner limits assumed): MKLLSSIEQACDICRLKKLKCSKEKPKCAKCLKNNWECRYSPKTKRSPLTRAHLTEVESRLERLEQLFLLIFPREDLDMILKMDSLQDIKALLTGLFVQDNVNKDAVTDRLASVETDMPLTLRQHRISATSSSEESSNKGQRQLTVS

SMILES	mean change of LPS-induced TNFα synthesis [1]	mean change of LPS-induced NO synthesis [2]	EC50 [3, 6]	PPARγ activation, increase in beta-lactamase activity over media only control [4]	IC50 (CP70)	IC50 (HPAC)	IC50 (MM200)	activity against CP70, HPAC and MM200 cell lines (cancer cell lines)	NFκB inhibition [5]	free radical scavenging / antioxidant activity in DPPH screen ([3]; 100 μM, ΔAbs>0.3 criterion)	EC50 ([3]; comparative, Table 13)	antioxidant activity, AAPH-induced time to half-lysis of red blood cells (red blood cells (RBC))	Time taken to reach half-lysis, time (red blood cells (RBC); test compounds at 10 μM, vehicle 40.0, comparative, Table 14)
CN1COc2cc3c(cc2C1)C=C(c1ccc(O)cc1)CO3 [Compound 4, 4-(3-methyl-2,3,4,8-tetrahydrochromeno[6,7-e][1,3]oxazin-7-yl)phenol]	greatest inhibition	greatest inhibition	22.5 µM										
COc1ccc(CN2COc3cc4c(cc3C2)C=C(c2ccc(O)cc2)CO4)cc1 [Compound 6, 4-(3-(4-Methoxybenzyl)-2,3,4,8-tetrahydrochromeno[6,7-e][1,3]oxazin-7-yl)phenol]	greatest inhibition		24 µM	PPARγ agonist activity	5.08 ± 1.5 µM	9.64 ± 3.6 µM	11.3 ± 0.2 µM	active					
Cc1cccc(N2COc3cc4c(cc3C2)C=C(c2ccc(O)cc2)CO4)c1 [Compound 22, 4-(3-m-Tolyl-2,3,4,8-tetrahydrochromeno[6,7-e][1,3]oxazin-7-yl)phenol]	greatest inhibition	greatest inhibition	21 µM	PPARγ agonist activity									
O=c1c(-c2ccc(O)cc2)coc2cc(O)cc(O)c12 [genistein, reference compound]									inhibited NFκB	no antioxidant activity	> 100 µM	delaying the AAPH-induced time to half-lysis	93.8 min
